Results taken from US20240261417A1, “SOS1 DEGRADING AGENT AND PREPARATION METHOD THEREFOR AND APPLICATION THEREOF” (SHANGHAI LEADINGTAC PHARMACEUTICAL CO. LTD., priority 2021, published 2024).

Target: T1, SOS1 protein (Homo sapiens, UniProt Q07889)
T1 sequence (Q07889 1-1333): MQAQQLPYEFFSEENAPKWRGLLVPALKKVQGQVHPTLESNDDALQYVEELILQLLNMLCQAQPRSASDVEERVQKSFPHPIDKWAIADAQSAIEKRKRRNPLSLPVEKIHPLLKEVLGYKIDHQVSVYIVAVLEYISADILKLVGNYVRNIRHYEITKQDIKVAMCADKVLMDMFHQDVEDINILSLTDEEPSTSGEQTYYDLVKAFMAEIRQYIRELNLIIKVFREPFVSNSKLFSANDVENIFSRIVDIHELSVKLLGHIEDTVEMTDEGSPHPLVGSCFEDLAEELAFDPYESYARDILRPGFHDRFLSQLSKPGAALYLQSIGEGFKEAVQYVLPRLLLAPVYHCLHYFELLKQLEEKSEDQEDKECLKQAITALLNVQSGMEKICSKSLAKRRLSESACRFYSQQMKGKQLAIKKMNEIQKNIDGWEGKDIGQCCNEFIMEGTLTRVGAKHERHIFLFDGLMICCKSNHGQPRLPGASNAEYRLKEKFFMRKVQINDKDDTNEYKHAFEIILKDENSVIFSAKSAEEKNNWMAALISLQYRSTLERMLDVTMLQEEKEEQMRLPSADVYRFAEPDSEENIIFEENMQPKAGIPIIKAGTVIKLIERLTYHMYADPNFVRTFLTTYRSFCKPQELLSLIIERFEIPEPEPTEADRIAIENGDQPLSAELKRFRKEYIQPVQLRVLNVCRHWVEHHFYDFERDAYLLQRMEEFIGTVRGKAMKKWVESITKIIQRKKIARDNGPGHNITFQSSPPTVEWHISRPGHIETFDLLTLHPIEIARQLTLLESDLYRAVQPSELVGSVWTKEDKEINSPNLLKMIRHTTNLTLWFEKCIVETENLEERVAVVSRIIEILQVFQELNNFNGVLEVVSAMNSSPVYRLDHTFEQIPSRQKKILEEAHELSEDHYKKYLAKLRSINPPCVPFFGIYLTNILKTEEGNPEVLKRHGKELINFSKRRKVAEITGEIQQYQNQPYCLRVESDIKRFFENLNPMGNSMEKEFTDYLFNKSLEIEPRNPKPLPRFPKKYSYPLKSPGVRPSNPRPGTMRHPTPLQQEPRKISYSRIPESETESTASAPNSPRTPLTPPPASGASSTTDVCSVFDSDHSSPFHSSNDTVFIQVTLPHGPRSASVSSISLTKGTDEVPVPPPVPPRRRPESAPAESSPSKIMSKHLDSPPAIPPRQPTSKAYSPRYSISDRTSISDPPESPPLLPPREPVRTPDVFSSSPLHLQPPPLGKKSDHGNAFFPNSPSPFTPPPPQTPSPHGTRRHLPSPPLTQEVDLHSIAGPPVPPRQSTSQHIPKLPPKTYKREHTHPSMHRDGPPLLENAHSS
Test: SOS1 degradation assay (Western blot), DLD-1 cells
Format: cell-based
Design: host or cells: DLD-1 (human cancer cell lines)
Conditions: 24 h; for DC50: read-out: DLD-1 (G13D) DC50; for Dmax: read-out: DLD-1 (G13D) Dmax
Experimental: The specific procedures were as follows:
0.95 mL of cells were seeded into each well of a 24-well cell culture plate to achieve a cell density of 5×10^5 cells/well; the cell plate was incubated in an incubator at 37° C. with 5% CO2 overnight. Then 50 μL of the compound solution after dilution was added to each of the wells with the corresponding cells, so that the final concentration of the compound was in a range of 0.03-3000 nM. […] After dosing, the cell plate was incubated in an incubator at 37° C. with 5% CO2 for 24 h. […] After the plate was left to stand on ice for 30 min, the protein lysate in each well was transferred to a 1.5 mL centrifuge tube and centrifuged at 15000 g for 20 min at 4° C. The cell lysate supernatant after centrifugation was cryopreserved at −80° C. for testing and was used for determining the degradation level of the SOS1 protein by a WB method. The concentration of total protein in the cell lysate supernatant was determined using the BCA Protein Quantification Kit (Tiangen, PA115-02).
The concentration of total protein in the cell lysate was determined by BCA. The total protein was adjusted to 0.5 μg/μL with PBS and 5× SDS-PAGE protein loading buffer (Beyotime, P0015L), incubated in a water bath at 100° C. for 15 min, incubated in an ice bath on ice for 5 min, centrifuged at 14000 g for 1 min at 4° C., and mixed well as a loading sample for WB. Protein electrophoresis was performed on a precast gel (KeyGEN, KGMGO10W15) with a loading volume of 10 μL (total protein: 5 μg) using a Tris-MOPS-SDS running solution (Adamas, P1598253) at a constant voltage of 120 V for 55 min. After the electrophoresis, the protein on the gel strip was transferred to a PVDF membrane at a constant current of 250 mA for 65 min. After the membrane transfer, the membrane was incubated in 1× QuickBlock blocking buffer (Beyotime, P0235) for 30 min at room temperature. […] The protein map was subjected to gray value analysis by the chemiluminescence imaging system from Clinx. […] Then the degradation rate was calculated by comparing the gray correction value with the gray correction value of the control group. Then nonlinear curve fitting was performed by GraphPad Prism 8 in the logarithmic concentration-inhibition rate to obtain the DC50 and Dmax values of the compounds.

SMILES	DC50 [nM]	Dmax [%]
CNCc1ccccc1-c1csc([C@@H](C)Nc2nc(C)nc3cc(OC)c([C@H]4CC[C@H](C(=O)N5CCN(CC6CCC7(CC6)CCN(C(=O)c6ccc(OC)c(N8CCC(=O)NC8=O)c6)CC7)CC5)CC4)cc23)c1 [Example 73, 1-(2-methoxy-5-(9-((4-((1R,4R)-4-(7-methoxy-2-methyl-4-(((R)-1-(4-(2-((methylamino)methyl)phenyl)thien-2-yl)ethyl)amino)quinazolin-6-yl)cyclohexane-1-carbonyl)piperazin-1-yl)methyl)-3-azaspiro[5.5]undecane-3-carbonyl)phenyl)dihydropyrimidine-2,4(1H,3H)-dione]	50 to 100	80 to 100
COc1cc2nc(C)nc(N[C@H](C)c3cc(N)cc(C(F)(F)F)c3)c2cc1[C@H]1CC[C@H](C(=O)N2CCN(CC3CCC4(CC3)CCN(C(=O)c3ccc(Cl)c(N5CCC(=O)NC5=O)c3)CC4)CC2)CC1 [Example 2, 1-(5-(9-((4-((1R,4R)-4-(4-(((R)-1-(3-amino-5-(trifluoromethyl)phenyl)ethyl)amino)-7-methoxy-2-methylquinazolin-6-yl)cyclohexane-1-carbonyl)piperazin-1-yl)methyl)-3-azaspiro[5.5]undecane-3-carbonyl)-2-chlorophenyl)dihydropyrimidine-2,4(1H,3H)-dione]	< 50	80 to 100
COc1cc2nc(C)nc(N[C@H](C)c3cccc4c3CCS4(=O)=O)c2cc1[C@H]1CC[C@H](C(=O)N2CCN(CC3CCC4(CC3)CCN(C(=O)c3ccc(Cl)c(N5CCC(=O)NC5=O)c3)CC4)CC2)CC1 [Example 10, 1-(2-chloro-5-(9-((4-((1R,4R)-4-(4-(((R)-1-(1,1-dioxo-2,3-dihydrobenzo[b]thiophen-4-yl)ethyl)amino)-7-methoxy-2-methylquinazolin-6-yl)cyclohexane-1-carbonyl)piperazin-1-yl)methyl)-3-azaspiro[5.5]undecane-3-carbonyl)phenyl)dihydropyrimidine-2,4(1H,3H)-dione]	< 50	80 to 100

Next, values leading:

DC50 [nM]	Dmax [%]	SMILES
50 to 100	80 to 100	COc1cc2nc(C)nc(N[C@H](C)c3cc(N)cc(C(F)(F)F)c3)c2cc1[C@H]1CC[C@H](C(=O)N2CCC(CCOCC3CCN(C(=O)c4ccc(Cl)c(N5CCC(=O)NC5=O)c4)CC3)CC2)CC1 [Example 19, 1-(5-(4-((2-(1-((1R,4R)-4-(4-(((R)-1-(3-amino-5-(trifluoromethyl)phenyl)ethyl)amino)-7-methoxy-2-methylquinazolin-6-yl)cyclohexane-1-carbonyl)piperidin-4-yl)ethoxy)methyl)piperidine-1-carbonyl)-2-chlorophenyl)dihydropyrimidine-2,4(1H,3H)-dione]
< 50	80 to 100	COc1cc2nc(C)nc(N[C@H](C)c3cc(N)cc(C(F)(F)F)c3)c2cc1[C@H]1CC[C@H](C(=O)N2CCN(CCC3CCC4(CC3)CCN(C(=O)c3ccc(Cl)c(N5CCC(=O)NC5=O)c3)CC4)CC2)CC1 [Example 1, 1-(5-(9-(2-(4-((1R,4R)-4-(4-(((R)-1-(3-amino-5-(trifluoromethyl)phenyl)ethyl)amino)-7-methoxy-2-methylquinazolin-6-yl)cyclohexane-1-carbonyl)piperazin-1-yl)ethyl)-3-azaspiro[5.5]undecane-3-carbonyl)-2-chlorophenyl)dihydropyrimidine-2,4(1H,3H)-dione]
100 to 500	80 to 100	COc1cc2nc(C)nc(N[C@H](C)c3cc(N)cc(C(F)(F)F)c3)c2cc1[C@H]1CC[C@H](C(=O)N2CCN(CCOCC3CCN(C(=O)c4ccc(Cl)c(N5CCC(=O)NC5=O)c4)CC3)CC2)CC1 [Example 33, 1-(5-(4-((2-(4-((1R,4R)-4-(4-(((R)-1-(3-amino-5-(trifluoromethyl)phenyl)ethyl)amino)-7-methoxy-2-methylquinazolin-6-yl)cyclohexane-1-carbonyl)piperazin-1-yl)ethoxy)methyl)piperidine-1-carbonyl)-2-chlorophenyl)dihydropyrimidine-2,4(1H,3H)-dione]
